Entries after “also recorded” stand apart in the source; their conditions may differ.
Key:
Src kinase = Src kinase (Homo sapiens, UniProt P12931); assay: SERS peptide-conjugated nanoprobe assay of Src kinase inhibition; format: biochemical; settings: with increasing concentration of inhibitor
Method: Src kinase SERS probes were tested and calibrated using purified p60 cellular Src kinase first. The real time peptide SERS spectra were recorded in the reaction with 10 nM Src kinase at 37° C. […] The phosphorylation level was defined as the normalized ratio of peak intensities between 1004 cm^−1 and 1260 cm^−1. […] The real time phosphorylation level in the reactions was characterized with various concentrations of Src kinase. […] The reaction constants of the Src kinase at different concentration can be calculated using the Michaelis-Maten model.
Different Src kinase inhibitors were tested using the peptide-conjugated nanoprobe assay. The phosphorylation level of the Src kinase with the addition of the inhibitors PP2, PP3 and SU5656 was tested. […] The IC50 concentrations for the three inhibitors were characterized respectively.
A microscopy system with Raman spectrometer was used to acquire Raman scattering spectra from single nanocrescents. […] A 785 nm semiconductor laser was used in our experiments as the excitation source of Raman scattering, and the laser beam was focused by a 40× objective lens on the nanocrescent. The excitation power was measured by a photometer (Newport, Calif.) to be ˜0.8 mW. The Raman scattering light was then collected through the same optical pathway through a long-pass filter and analyzed by the spectrometer.

[1] = tested on: substrate peptide for Src kinase (SEQ ID NO:1)
[2] = target: substrate peptide for Src kinase (SEQ ID NO:1); assay: cell-based or functional assay

Src kinase, sequence (P12931 whole entry): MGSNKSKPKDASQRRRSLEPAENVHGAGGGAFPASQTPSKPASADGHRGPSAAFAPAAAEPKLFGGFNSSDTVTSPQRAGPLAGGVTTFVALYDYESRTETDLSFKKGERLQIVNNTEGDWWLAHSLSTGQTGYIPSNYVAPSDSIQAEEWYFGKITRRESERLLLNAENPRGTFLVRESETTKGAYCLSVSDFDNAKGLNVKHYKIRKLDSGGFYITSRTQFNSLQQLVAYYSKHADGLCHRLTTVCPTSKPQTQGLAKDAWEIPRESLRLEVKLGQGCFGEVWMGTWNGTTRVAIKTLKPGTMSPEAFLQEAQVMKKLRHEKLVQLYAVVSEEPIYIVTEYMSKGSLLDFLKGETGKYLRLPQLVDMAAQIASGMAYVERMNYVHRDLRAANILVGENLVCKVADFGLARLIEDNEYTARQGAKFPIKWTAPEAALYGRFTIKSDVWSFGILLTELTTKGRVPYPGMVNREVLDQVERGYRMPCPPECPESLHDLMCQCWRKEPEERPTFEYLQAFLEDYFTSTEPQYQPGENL

Compound	phosphorylation level of the Src kinase with the addition of the inhibitors (Src kinase)	also measured
CC(C)(C)n1nc(-c2ccc(Cl)cc2)c2c(N)ncnc21 [PP2]	decreases significantly	–
Nc1ncnc2c1cnn2-c1ccccc1 [PP3]	decreases significantly	–
CN(C)S(=O)(=O)c1ccc2c(c1)/C(=C/c1cc3c([nH]1)CCCC3)C(=O)N2 [SU5656]	decreases significantly	–
purified p60 cellular Src kinase	–	minimal detectable concentration of Src kinase (SERS phosphorylation assay) [1]: the minimal detectable concentration is above 10 pM; phosphorylation level (normalized ratio of peak intensities between 1004 cm^-1 and 1260 cm^-1, SERS) [1]: increased more than 6-fold after the reactions with 10 nM Src kinase; also recorded: The phosphorylation level saturated at around 7 for high concentration of Src kinase
virus Src protein (in crude lysate of transfected 3T9 mouse fibroblast cells) (enzyme)	–	phosphorylation level (SERS, crude cell lysate) [2]: 3 times

Reference: patent US20110046018A1, “SERS-BASED, SINGLE STEP, REAL-TIME DETECTION OF PROTEIN KINASE AND/OR PHOSPHATASE ACTIVITY” (priority 2007, published 2011)
